Where two headings read alike, the source gives them in different places.
How the values were obtained:
[1] = system: OVCAR-3 human ovarian cancer; experiment: s.c. OVCAR-3 tumor, i.v. treatment, tumor volume (FIG. 7); assay type: in vivo, mice
Description: OVCAR-3 human ovarian cancer.
The tumor volume (mm^3) from tumor measurement was calculated: (Length * (Width/2)^2 * π). Mice were sacrificed when the average tumor volume of the group reached 1500 mm^3.

[2] = system: OVCAR-3 human ovarian cancer; experiment: i.p. OVCAR-3 tumor, i.p. treatment, survival; details: for % ILS / LTS/n (mice that survived to 300 days) / MST Days ± SEM (n) / Median survival time: treated days 20, 22, 24, 26 and 28 i.p.; for MST Days ± SEM (n) / Median survival time: long-term survivors not included
Description: C.B-17 SCID female mice were injected i.p. with 5×10^6 OVCAR-3 human ovarian cancer cells (day 0). […] Note that long-term survivors (mice that survived through day 300 after cell inoculation) were not included in mean, median, or % ILS calculations.

[3] = system: A-549 human lung carcinoma; experiment: In vitro sensitivity, sulforhodamine B cytotoxicity assay, A-549 (Table 2); assay type: cell-based; details: 72-hour incubation; averaged from two separate experiments
Description: Briefly, 96-well microtiter plates were inoculated (100 μL/well) with 5×10^3 (A549) or 7.5×10^3 (OVCAR-3) cells/well, in RPMI-1640 supplemented with 10% FBS (growth media). The plates were incubated for 24 hr at 37° C., 100% humidity and 5% CO2. At 24 hours, growth media (100 μL) was added to designated “time zero” plates. Similarly, serial dilutions of drug or vehicle (in media) were added (100 μL aliquots) to the test and vehicle control wells at twice the predetermined highest concentration. […] Cells (including time zero plates) were then fixed with 50 μL of 50% trichloroacetic acid (TCA) (w:v) for adherent cells or 80% TCA for suspended cells, and plates refrigerated at 4° C. for 1 hr. […] The plates were then air-dried for 24 hr.

A549 human lung cancer = experiment: s.c. A549 tumor, i.v. treatment, tumor volume (FIG. 8); assay type: in vivo, mice
From the text: Mice were sacrificed when the average tumor volume of the group reached 1500 mm^3.

CDF1 mice = experiment: In vivo toxicity, i.p. x 5, non-tumor bearing mice; details: 30 days observation
Description: A separate group (n=5) was injected with concentrations of Cremophor® EL and ethanol (in PBS) equivalent to the highest concentration of the test treatment. Mortality was recorded daily and body weights taken at least twice weekly for an observation period of 30 days.

[4] = system: MCF-7 human breast carcinoma; experiment: In vitro sensitivity, sulforhodamine B cytotoxicity assay, MCF-7 (Table 2); assay type: cell-based; details: 72-hour incubation; averaged from two separate experiments
OVCAR-3 cancer cells = details: read-out: GI50 ± S.D. OVCAR-3; 72 hr, SRB assay
Description: Briefly, 96-well microtiter plates were inoculated (100 μL/well) with 5×10^3 (A549) or 7.5×10^3 (OVCAR-3) cells/well, in RPMI-1640 supplemented with 10% FBS (growth media). The plates were incubated for 24 hr at 37° C., 100% humidity and 5% CO2. At 24 hours, growth media (100 μL) was added to designated “time zero” plates. Similarly, serial dilutions of drug or vehicle (in media) were added (100 μL aliquots) to the test and vehicle control wells at twice the predetermined highest concentration. There were triplicate wells on each plate and duplicate plates (total 6 wells) for each drug concentration. The test plates were incubated as above for 72 hr. Cells (including time zero plates) were then fixed with 50 μL of 50% trichloroacetic acid (TCA) (w:v) for adherent cells or 80% TCA for suspended cells, and plates refrigerated at 4° C. for 1 hr. […] The bound stain was solubilized with 100 μL of 10 mM Tris buffer and the optical density was read spectrophotometrically at 490 nm (Microplate Reader Model 3550-UV, Bio-Rad, Hercules, Calif.). Percent growth was calculated as follows: (T-T0) / (C-T0)×100; where (T)=mean optical density of treated wells at a given drug concentration, (T0)=mean optical density of time zero wells, and (C)=mean optical density of control wells.

[5] = system: HT-29 human colon carcinoma cells; experiment: In vitro sensitivity, sulforhodamine B cytotoxicity assay, HT-29 (Table 2); assay type: cell-based; details: 72-hour incubation; averaged from two separate experiments
[6] = system: OVCAR-3 human ovarian cancer; experiment: i.p. OVCAR-3 tumor, i.v. treatment, survival (FIG. 6); assay type: in vivo, mice
Description: Mice were observed daily for mortality and % ILS was calculated as described above.

A549 human NSCLC = experiment: i.p. A549 tumor, i.p. treatment, survival; details: for % ILS / LTS/n / MST Days + SEM / Median survival time: treatment days 1, 3, 5, 7 and 9 i.p.
Description: Note that long-term survivors (mice that survived through day 300 after cell inoculation) were not included in mean, median, or % ILS calculations.
SCID mice (6/group) were injected with 5×10^6 A549 human NSCLC cells i.p. (day 0).

[7] = Description: The 20 mg/mL formulation was further diluted to 6 mg/mL in 5% dextrose. […] At 0h, 24h, 1, 2, 3, 4, and 5 weeks samples were chromatographically analyzed by diluting the drugs to 1 mg/mL with 5% dextrose and then mixing 1:1 with acetonitrile. The chromatographic system consisted of a Shimadzu LC100 system with a UV detector. The column used was an Inertsil-ODS2, 150 ×4.6 mm (5 micron particle size) from Keystone Scientific (Bellefonte, Pa.). 20 μL of each sample was injected and read at 227 nm at ambient temperature. […] The constant flow rate was 1 mL/min.
[8] = system: MCF-7/ADR (adriamycin-resistant); experiment: In vitro sensitivity, sulforhodamine B cytotoxicity assay, MCF-7/ADR (Table 2); assay type: cell-based, human; details: 72-hour incubation; averaged from two separate experiments

Description for A549 cancer cells: Briefly, 96-well microtiter plates were inoculated (100 μL/well) with 5×10^3 (A549) or 7.5×10^3 (OVCAR-3) cells/well, in RPMI-1640 supplemented with 10% FBS (growth media). The plates were incubated for 24 hr at 37° C., 100% humidity and 5% CO2. At 24 hours, growth media (100 μL) was added to designated “time zero” plates. Similarly, serial dilutions of drug or vehicle (in media) were added (100 μL aliquots) to the test and vehicle control wells at twice the predetermined highest concentration. There were triplicate wells on each plate and duplicate plates (total 6 wells) for each drug concentration. The test plates were incubated as above for 72 hr. Cells (including time zero plates) were then fixed with 50 μL of 50% trichloroacetic acid (TCA) (w:v) for adherent cells or 80% TCA for suspended cells, and plates refrigerated at 4° C. for 1 hr. The supernatant was discarded (suspended cell plates were first centrifuged) and the wells rinsed six times with tap water and air-dried. One hundred microliters of 0.4% SRB in 1% acetic acid were added to each well and the plates were incubated under ambient (RT) conditions for 10 min. Unbound stain was removed by rinsing the wells three times with 1% acetic acid. The plates were then air-dried for 24 hr. The bound stain was solubilized with 100 μL of 10 mM Tris buffer and the optical density was read spectrophotometrically at 490 nm (Microplate Reader Model 3550-UV, Bio-Rad, Hercules, Calif.). Percent growth was calculated as follows: (T-T0) / (C-T0)×100; where (T)=mean optical density of treated wells at a given drug concentration, (T0)=mean optical density of time zero wells, and (C)=mean optical density of control wells.

Structure (SMILES): CCCCCCCCCCCCCC[C@@H](Br)C(=O)O[C@@H](C(=O)O[C@H]1C[C@@]2(O)[C@@H](OC(=O)c3ccccc3)[C@@H]3[C@]4(OC(C)=O)CO[C@@H]4C[C@H](O)[C@@]3(C)C(=O)[C@H](OC(C)=O)C(=C1C)C2(C)C)[C@@H](NC(=O)c1ccccc1)c1ccccc1 [BrC16HT, 2′-(R)-[2-bromohexadecanoyl] paclitaxel]
- delaying tumor growth ([1]; 12.5 mg/kg i.v. on days 1, 3, 5, 7 & 9): approximately 79 days
- tumor growth suppression ([1]; 25 mg/kg i.v. on days 1, 3, 5, 7 & 9): suppressed tumor growth completely up to 120 days post-implantation
- tumor growth vs. control ([1]; i.v. on days 1, 3, 5, 7 & 9, BrC16HT 12.5-25 mg/kg, Taxol® 25 mg/kg): significantly (p<0.05 vs. control) inhibited the tumor growth
- survival compared to Taxol® 25 mg/kg ([2]; BrC16HT at both 25 and 50 mg/kg, delayed i.p. schedule): significantly increased survival
- long-term survivors (LTS), in words ([2]; delayed i.p. schedule (Table 9b)): clear dose-response effect with regard to LTS
- survival of tumor-bearing mice vs. control ([2]; early (days 1, 3, 5, 7 & 9) and delayed (days 20, 22, 24, 26 & 28) i.p. treatment schedules): significantly prolonged (p<0.05 vs. control) the survival
- survival time compared with Taxol® at equivalent doses ([2]; early and delayed i.p. schedules): more effective than Taxol® in extending survival time
- % ILS ([2]; 25 mg/kg): 115%
- LTS/n (mice that survived to 300 days) ([2]; 25 mg/kg): 4/10
- MST Days ± SEM (n) ([2]; 25 mg/kg): 220 ± 13 (6) Days
- Median survival time ([2]; 25 mg/kg): 221 days
- % ILS ([2]; 50 mg/kg): 80%
- LTS/n (mice that survived to 300 days) ([2]; 50 mg/kg): 7/10
- MST Days ± SEM (n) ([2]; 50 mg/kg): 183 ± 67 (3) Days
- Median survival time ([2]; 50 mg/kg): 245 days
- GI50 [3]: 127 nM
- efficacy compared with Taxol® at 25 mg/kg (A549 human lung cancer; all early treatment schedules (FIGS. 8a-c), BrC16HT at 12.5 or 25 mg/kg i.v.): more effective than Taxol® at 25 mg/kg
- tumor regression compared with Taxol® (A549 human lung cancer; delayed schedule, days 20, 22, 24, 26 and 28, 25 mg/kg i.v. (FIG. 8d)): greater and more prolonged tumor regression
- tumor growth vs. control (A549 human lung cancer; i.v., independent of the dose schedule, BrC16HT 12.5-25 mg/kg, Taxol® 25 mg/kg): significantly (p <0.05 vs. control) inhibited the tumor growth
- Number of Mice surviving/Total (CDF1 mice; i.p. days 1 through 5, 12.5 mg/kg): 10/10
- Number of Mice surviving/Total (CDF1 mice; i.p. days 1 through 5, 25 mg/kg): 19/19
- Number of Mice surviving/Total (CDF1 mice; i.p. days 1 through 5, 37.5 mg/kg): 10/10
- Number of Mice surviving/Total (CDF1 mice; i.p. days 1 through 5, 50 mg/kg): 14/20
- Number of Mice surviving/Total (CDF1 mice; i.p. days 1 through 5, 75 mg/kg): 0/5
- Number of Mice surviving/Total (CDF1 mice; i.p. days 1 through 5, 100 mg/kg): 0/2
- GI50 [4]: 71 nM
- GI50 relative to Taxol® (A549 cancer cells; in both cell lines (A549, OVCAR-3)): approximately ten times higher than Taxol®
- GI50 (A549 cancer cells; read-out: GI50 ± S.D. A549, 72 hr, SRB assay): 29 ± 5.9 nM
- GI50 (OVCAR-3 cancer cells): 20 ± 3.3 nM
- GI50 [5]: 59.5 nM
- medium survival times ([6]; 12.5 mg/kg i.v. on days 20, 22, 24, 26 & 28): 182 days
- survival time compared to controls ([6]; 25 mg/kg i.v. on days 20, 22, 24, 26 & 28): significantly prolonged compared to controls (p<0.0001)
- survival time vs. control ([6]; 12.5 or 25 mg/kg i.v. on days 1, 3, 5, 7, 9, 42, 44, 46, 48 & 50 (FIG. 6a)): significantly (p<0.05 vs. control) increased the survival time
- efficacy compared with Taxol® ([6]; 12.5 or 25 mg/kg i.v., FIG. 6a schedule): more effective than Taxol®
- survival time vs. control ([6]; i.v. on days 20, 22, 24, 26 & 28, BrC16HT 12.5 or 25 mg/kg, Taxol® 12.5 mg/kg (FIG. 6b)): significantly (p<0.05 vs. control) increased the survival time
- survival time of tumor-bearing mice vs. control (A549 human NSCLC; i.p. on days 1, 3, 5, 7 & 9): significantly (p<0.05 vs. control) increased the survival time
- % ILS (A549 human NSCLC; 25 mg/kg): 247%
- LTS/n (A549 human NSCLC; 25 mg/kg): 0/6
- MST Days + SEM (A549 human NSCLC; 25 mg/kg): 117 + 8 Days
- Median survival time (A549 human NSCLC; 25 mg/kg): 112 days
- % ILS (A549 human NSCLC; 50 mg/kg): 450%
- LTS/n (A549 human NSCLC; 50 mg/kg): 0/6
- MST Days + SEM (A549 human NSCLC; 50 mg/kg): 186 + 30 Days
- Median survival time (A549 human NSCLC; 50 mg/kg): 171 days
- Percentage of BrC16HT in Sample ([7]; 6 mg/mL in Crem/EtOH (50:50), undiluted, storage 4° C., 0 h): 93%
- Percentage of BrC16HT in Sample ([7]; 6 mg/mL in Crem/EtOH (50:50), undiluted, storage 4° C., 1 Week): 83%
- Percentage of BrC16HT in Sample ([7]; 6 mg/mL in Crem/EtOH (50:50), undiluted, storage 4° C., 2 Week): 93%
- Percentage of BrC16HT in Sample ([7]; 6 mg/mL in Crem/EtOH (50:50), undiluted, storage 4° C., 3 Week): 61%
- Percentage of BrC16HT in Sample ([7]; 6 mg/mL in Crem/EtOH (50:50), undiluted, storage 4° C., 4 Week): 58%
- Percentage of BrC16HT in Sample ([7]; 6 mg/mL in Crem/EtOH (50:50), undiluted, storage 4° C., 5 Week): 53%
- Percentage of BrC16HT in Sample ([7]; 6 mg/mL in Crem/EtOH (50:50), undiluted, storage 4° C., 24 h): 89%
- Percentage of BrC16HT in Sample ([7]; 6 mg/mL in Crem/EtOH (50:50), undiluted, storage 26° C., 0 h): 95%
- Percentage of BrC16HT in Sample ([7]; 6 mg/mL in Crem/EtOH (50:50), undiluted, storage 26° C., 1 Week): 42%
- Percentage of BrC16HT in Sample ([7]; 6 mg/mL in Crem/EtOH (50:50), undiluted, storage 26° C., 2 Week): 22%
- Percentage of BrC16HT in Sample ([7]; 6 mg/mL in Crem/EtOH (50:50), undiluted, storage 26° C., 3 Week): 14%
- Percentage of BrC16HT in Sample ([7]; 6 mg/mL in Crem/EtOH (50:50), undiluted, storage 26° C., 4 Week): 8%
- Percentage of BrC16HT in Sample ([7]; 6 mg/mL in Crem/EtOH (50:50), undiluted, storage 26° C., 5 Week): 5%
- Percentage of BrC16HT in Sample ([7]; 6 mg/mL in Crem/EtOH (50:50), undiluted, storage 26° C., 24 h): 84%
- Percentage of BrC16HT in Sample ([7]; 20 mg/mL in Crem/EtOH (50:50) diluted with 5% dextrose to 6 mg/mL, storage 4° C., 0 h): 92%
- Percentage of BrC16HT in Sample ([7]; 20 mg/mL in Crem/EtOH (50:50) diluted with 5% dextrose to 6 mg/mL, storage 4° C., 1 Week): 90%
- Percentage of BrC16HT in Sample ([7]; 20 mg/mL in Crem/EtOH (50:50) diluted with 5% dextrose to 6 mg/mL, storage 4° C., 2 Week): 88%
- Percentage of BrC16HT in Sample ([7]; 20 mg/mL in Crem/EtOH (50:50) diluted with 5% dextrose to 6 mg/mL, storage 4° C., 3 Week): 83%
- Percentage of BrC16HT in Sample ([7]; 20 mg/mL in Crem/EtOH (50:50) diluted with 5% dextrose to 6 mg/mL, storage 4° C., 4 Week): 85%
- Percentage of BrC16HT in Sample ([7]; 20 mg/mL in Crem/EtOH (50:50) diluted with 5% dextrose to 6 mg/mL, storage 4° C., 5 Week): 82%
- Percentage of BrC16HT in Sample ([7]; 20 mg/mL in Crem/EtOH (50:50) diluted with 5% dextrose to 6 mg/mL, storage 4° C., 24 h): 91%
- Percentage of BrC16HT in Sample ([7]; 20 mg/mL in Crem/EtOH (50:50) diluted with 5% dextrose to 6 mg/mL, storage 26° C., 0 h): 97%
- Percentage of BrC16HT in Sample ([7]; 20 mg/mL in Crem/EtOH (50:50) diluted with 5% dextrose to 6 mg/mL, storage 26° C., 1 Week): 93%
- Percentage of BrC16HT in Sample ([7]; 20 mg/mL in Crem/EtOH (50:50) diluted with 5% dextrose to 6 mg/mL, storage 26° C., 2 Week): 90%
- Percentage of BrC16HT in Sample ([7]; 20 mg/mL in Crem/EtOH (50:50) diluted with 5% dextrose to 6 mg/mL, storage 26° C., 3 Week): 81%
- Percentage of BrC16HT in Sample ([7]; 20 mg/mL in Crem/EtOH (50:50) diluted with 5% dextrose to 6 mg/mL, storage 26° C., 4 Week): 88%
- Percentage of BrC16HT in Sample ([7]; 20 mg/mL in Crem/EtOH (50:50) diluted with 5% dextrose to 6 mg/mL, storage 26° C., 5 Week): 87%
- Percentage of BrC16HT in Sample ([7]; 20 mg/mL in Crem/EtOH (50:50) diluted with 5% dextrose to 6 mg/mL, storage 26° C., 24 h): 99%
- GI50 [8]: > 10000 nM

Reference: patent US6482850B2, “Hydrolysis-promoting hydrophobic taxane derivatives” (priority 1995, dated 2002)
